In US20090011442A1, “TB diagnostics based on mycobacterium tuberculosis excretory secretory antigens and their specific immunoglobulins” (priority 2007, published 2009):
Where two headings read alike, the source gives them in different places.

Assays:
[1] = tested on: mycobacterial serine protease (Seva TB ES-31); type: biochemical, Mycobacterium tuberculosis H37Ra
M. tb H37Ra bacilli = assay: microbe, parasite or virus in culture; type: cell-based, Mycobacterium tuberculosis H37Ra
[2] = Mycobacterium tuberculosis, H37RA, read-out: % Inhibition on culture

Row | Compound | Inhibition (%) [1] | Residual activity (%) [1] | serine protease enzyme activity, effect in words [1] | % Inhibition of Serine protease [1] | Effect on H37Ra culture (LJ slant/Sautons' medium) (M. tb H37Ra bacilli) | bacillary growth on LJ slant and in Sautons' broth, effect in words (M. tb H37Ra bacilli) | also measured
1 | O=C(O)CN(CCN(CC(=O)O)CC(=O)O)CC(=O)O [Ethylene diamine tetracetic acid (EDTA), Ethylene diamine tetracetic acid] | 65% | 35.3 ± 0.89% | inhibited |  |  |  | 
2 | [H]/N=C(/N)N[C@H]1[C@H](O)[C@@H](O)[C@H](O[C@@H]2O[C@@H](C)[C@](O)(C=O)[C@H]2O[C@@H]2O[C@@H](CO)[C@H](O)[C@@H](O)[C@@H]2NC)[C@@H](N/C(N)=N\[H])[C@@H]1O [SM, streptomycin] |  |  | inhibited | 30% | No Growth | inhibition of bacillary growth | 
3 | Cl.NCCc1ccc(S(=O)(=O)F)cc1 [Pefabloc] | 92% | 7.56 ± 0.07% | inhibited |  |  |  | % Inhibition on culture (M. tb H37Ra bacilli; 10 µM): 88%
4 | O=S(=O)(F)Cc1ccccc1 [Phenyl methyl sulphonyl fluoride (PMSF), Phenyl methyl sulphonyl fluoride] | 80% | 19.6 ± 0.2% | inhibited |  |  |  | % Inhibition on culture (M. tb H37Ra bacilli; 20 µM): 72%
5 | c1cnc2c(c1)ccc1cccnc12 [1,10 Phenanthroline] | 78% | 22.4 ± 0.47% | inhibited |  |  |  | inhibition at 10 µM (M. tb H37Ra bacilli; [2]): 81%
6 | NC(=O)c1cnccn1 [PZA] |  |  |  | 0% |  |  | 
7 | O=c1oc(Cl)c(Cl)c2ccccc12 [3,4-Dichloroisocoumarin] |  |  | inhibited |  |  |  | Inhibition (%) ([1]; 10 µM): 90%; Residual activity (%) ([1]; 10 µM): 9.84 ± 0.07%; inhibition at 0.2 µM (M. tb H37Ra bacilli; [2]): 85%
8 | CC[C@@H](CO)NCCN[C@@H](CC)CO [EMB, ethambutol] |  |  | inhibited | 70% | No Growth | inhibition of bacillary growth | 
9 | NNC(=O)c1ccncc1 [INH, isoniazid] |  |  | inhibited | 85% | No Growth | inhibition of bacillary growth | inhibition of serine protease activity [1]: 85%
